Assay results taken from patent US20260014134A1, “COMPOSITION FOR TOPICAL DERMATOLOGICAL DELIVERY” (Limeway Pharma Design Limited, priority 2020, published 2026).
Where “and” joins values, the source holds several entries; their conditions need not be identical. Identical values can stand only once. Like-named read-outs stand apart in the source and are kept apart here.

How the values were obtained:
[1] = Solubility of diffusion coefficient enhancers in propylene glycol and caprylyl methicone; type: physicochemical; conditions: 23-25° C.
Text: As described previously, diffusion coefficient-enhancing excipients (DC enhancers) commonly comprise alcohol, acid or ester derivatives of C8-C22 hydrocarbons.
Conversely, lower carbon chain length acids and alcohols such as C8 and C10 alcohols and C8 and C10 acids may be considered to be far too soluble in hydrocarbyl methyl siloxanes including caprylyl methicone, such that their performance as diffusion coefficient-enhancing excipients would be adversely affected. Similarly, medium chain (for instance C14-C16) isopropyl esters are far too soluble in hydrocarbyl methyl siloxanes such as caprylyl methicone to allow performance as DC enhancers. For both of these classes of DC enhancer, up to 50% DC enhancer would be required to be at or near saturation in the non-volatile residual phase. In contrast, the C12-C14 acids and C14 alcohol have appropriate solubility in caprylyl methicone.
As an example of the outline design of a simple co-enhancer system comprising propylene glycol, and, for example, a C14 alcohol diffusion coefficient enhancer with caprylyl methicone, we might first consider that the concentration of propylene glycol and caprylyl methicone in the final composition (otherwise consisting of non-solvents) to be 25% of each. On this basis, the total amount of C14 alcohol to saturate both of these phases would be 2.44%/4+2.30%/4=1.185%, approximately 1.2%. […]

[2] = cited from earlier work
PARP-1 [3] = target: T1, PARP-1 (Homo sapiens, UniProt P09874); experiment: PARP-1 inhibition in vitro (Park J, 2010); type: biochemical
[4] = cited from earlier work; remark: listed apart in the source
human keratinocytes = conditions: cited from earlier work
PARP-1 [5] = target: T1, PARP-1; conditions: NAM 50 μM; cited from earlier work
[6] = tested on: melanosome transfer from melanocytes to keratinocytes; conditions: cited from earlier work
[7] = tested on: IL-1 beta, IL-6, IL-8 and TNF alpha; conditions: endotoxin-induced model; cited from earlier work
IL-8 = conditions: keratinocytes; cited from earlier work
IL-6 = conditions: NAM at 500 μm, the only dose studied; cited from earlier work
actinic keratoses = conditions: high oral dose, placebo-controlled; cited from earlier work
[8] = tested on: non-melanoma human skin cancers; conditions: cited from earlier work
[9] = tested on: AKs in transplant recipients; conditions: cited from earlier work
bullous pemphigoid = conditions: oral 2 g/day with -cycline antibiotics; cited from earlier work
[10] = tested on: women with symmetrical pigmentation; conditions: 5% and 2% NAM moisturizer; cited from earlier work
[11] = oral dosage; cited from earlier work
[12] = tested on: patients with mild-moderate psoriasis; conditions: end of 12 weeks; cited from earlier work
[13] = Saturated solubility of corticosteroids in liquid silicones; type: physicochemical; conditions: including caprylyl methicone
murine flank skin = conditions: 10% PHA applied to murine flank skin; cited from earlier work
human SC = conditions: 5% PHA in propylene glycol/myrystyl alcohol co-enhancer non-silicone cream; up to; cited from earlier work
[14] = tested on: acute radiation dermatitis; conditions: topical cream; cited from earlier work
melasma = conditions: oral, over 12 weeks; cited from earlier work

T1 sequence (P09874 whole entry, species assumed): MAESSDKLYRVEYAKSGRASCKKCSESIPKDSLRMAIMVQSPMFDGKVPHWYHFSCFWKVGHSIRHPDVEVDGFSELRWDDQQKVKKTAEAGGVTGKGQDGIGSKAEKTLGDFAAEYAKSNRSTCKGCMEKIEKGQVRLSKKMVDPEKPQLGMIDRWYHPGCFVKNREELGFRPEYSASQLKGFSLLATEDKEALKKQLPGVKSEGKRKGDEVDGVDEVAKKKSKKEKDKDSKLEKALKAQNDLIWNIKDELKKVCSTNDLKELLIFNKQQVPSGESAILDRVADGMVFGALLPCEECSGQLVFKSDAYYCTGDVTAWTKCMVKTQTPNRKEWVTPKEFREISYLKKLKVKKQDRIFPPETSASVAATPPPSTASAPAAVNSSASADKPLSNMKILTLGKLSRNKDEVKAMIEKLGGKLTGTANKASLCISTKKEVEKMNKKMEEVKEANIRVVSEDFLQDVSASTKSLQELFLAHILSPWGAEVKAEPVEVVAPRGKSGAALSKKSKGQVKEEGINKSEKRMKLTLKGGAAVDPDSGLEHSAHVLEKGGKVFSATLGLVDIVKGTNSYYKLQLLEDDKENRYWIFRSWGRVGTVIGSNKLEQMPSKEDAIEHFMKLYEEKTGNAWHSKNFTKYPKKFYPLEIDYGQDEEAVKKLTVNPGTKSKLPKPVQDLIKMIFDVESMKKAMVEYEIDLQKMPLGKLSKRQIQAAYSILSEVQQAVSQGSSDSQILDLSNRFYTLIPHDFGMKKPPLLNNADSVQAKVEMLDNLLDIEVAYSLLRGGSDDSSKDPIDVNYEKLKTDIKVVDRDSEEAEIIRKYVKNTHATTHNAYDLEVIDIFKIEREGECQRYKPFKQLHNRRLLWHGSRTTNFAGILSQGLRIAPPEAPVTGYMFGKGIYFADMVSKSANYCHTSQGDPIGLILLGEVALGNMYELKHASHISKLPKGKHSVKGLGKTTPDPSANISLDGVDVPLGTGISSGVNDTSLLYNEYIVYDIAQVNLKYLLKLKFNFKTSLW

CCCCCCCCCCCCCCO [C14 alcohol, myristyl alcohol]
solubility of C14 alcohol in caprylyl methicone (amount to saturate) ([1]; in caprylyl methicone): 2.30% | solubility of C14 alcohol in propylene glycol (amount to saturate) ([1]; in propylene glycol): 2.44% | logP O/W [2]: > 4.00

NC(=O)c1cccnc1 [NAM, nicotinamide]
concentration predicted to be required for significant PARP-1 inhibition (PARP-1 [3]): 50 to 100 µM | pKa [4]: ~3.5 and 3.5 | ceramide biosynthesis, % of maximum response (human keratinocytes; NAM 1-10 μM): 75%-100% | concentration at maximum of ceramide synthesis dose response (human keratinocytes; in vitro): ~10 µM | increase in biosynthesis of ceramides and other stratum corneum lipids (human keratinocytes; up to): up to 5 fold | PARP-1 inhibition (PARP-1 [5]): 66% | inhibition of melanosome transfer ([6]; 1.0 mmolL^−1 (1 mM) NAM, coculture model): 35-68% | inhibition of melanosome transfer ([6]; NAM 10 μM, after 3 days of treatment): 14% | concentration required for significant effects on proinflammatory cytokines [7]: 2,000 μM | concentration required to significantly inhibit P. acnes-induced IL-8 mRNA production (IL-8): 5.0 ug/ml and ~40 μM | reduction in IL-6 compared to untreated control (IL-6): 88% | effect on actinic keratoses (actinic keratoses): significantly reduced actinic keratoses | peritumoral and tumour infiltrating CD4+ and CD8+ lymphocytes versus placebo ([8]; melanomas arising on treatment): statistically significantly increased | rates of new non-melanoma skin cancers and actinic keratoses ([8]; oral): safe and effective in reducing the rates | patients with AKs significantly decreased in size ([9]; after six months, 18/19 patients): 88% | patients with complete clinical regression ([9]; seven patients): 42% | time to total remission of bullous pemphigoid (bullous pemphigoid): 6-8 weeks | reduction in hyperpigmented lesions [10]: dose-dependent reduction in hyperpigmented lesions | half-life of decrease of peak concentrations in plasma and skin [11]: approximately 90 minutes

C=C1/C(=C\C=C2/CCC[C@]3(C)[C@@H]([C@H](C)/C=C/[C@@H](O)C4CC4)CC[C@@H]23)C[C@@H](O)C[C@@H]1O [calcipotriol]
reduction of PASI score [12]: 77.8±9.7%

CCC(=O)O[C@]1(C(=O)SCF)[C@H](C)C[C@H]2[C@@H]3C[C@H](F)C4=CC(=O)C=C[C@]4(C)[C@@]3(F)[C@@H](O)C[C@@]21C [fluticasone propionate]
saturated solubility in a range of liquid silicones [13]: appropriately low

O=C1O[C@H](CO)[C@@H](O)[C@H](O)[C@H]1O [gluconolactone]
logP O/W [2]: −4.8

O=C(O)[C@H](O)[C@@H](O)[C@H](O[C@@H]1O[C@H](CO)[C@H](O)[C@H](O)[C@H]1O)[C@H](O)CO [lactobionic acid]
logP O/W [2]: −4.8 | decrease in pH at all SC depths (murine flank skin): 0.5-1.0 pH units | decrease in human SC pH in vivo (human SC): up to 1.5 pH units

C[C@@H]1C[C@H]2[C@@H]3CCC4=CC(=O)C=C[C@]4(C)[C@@]3(Cl)[C@@H](O)C[C@]2(C)[C@@]1(OC(=O)c1ccco1)C(=O)CCl [mometasone furoate]
saturated solubility in a range of liquid silicones [13]: appropriately low | reduction of acute radiation dermatitis versus emollient cream [14]: significantly more effective than emollient cream alone

NC[C@H]1CC[C@H](C(=O)O)CC1 [tranexamic acid]
reduction in melasma (mMASI, MASI) scores (melasma): approximately 50%
